Assay [1] has as its system allodynia and/or hyperalgesia. The note with it: capsaicin model; cited from earlier work.
Assay [2] relates to allodynia and/or hyperalgesia. The note with it: neuropathy model; cited from earlier work.
The subject of a further assay is pain. The note with it: reported in WO 00/01415; listed as εV1-2 peptide; cited from earlier work.
Assay [3] has as its system capsaicin-induced nociception. Nature of the assay: Capsaicin-induced nociception, paw withdrawal latency (Example 2). The note with it: 10 μM Tat-conjugated peptide intrathecal 15 min before 3% capsaicin, FIG. 3; for response to nociception (paw withdrawal latency): low rate heating. The format is in vivo, rat (adult male Sprague-Dawley). On the procedure: Example 2 describes another study in support of the invention, where a γPKC V5 domain peptide (SEQ ID NO:4) was used for pain management in the capsaicin pain model. As a positive, comparative control, a V1 εPKC peptide (SEQ ID NO:6) was used. The peptides were conjugated to a Tat carrier peptide (SEQ ID NO:7) and were administered intrathecally to test animals prior to application of capsaicin to a paw. […] minutes after capsaicin application, paw withdrawal latency was measured at regular intervals for 75 minutes. The results are shown in FIG. 3, for Tat-derived γPCK (closed squares), Tat-derived-εPCK (open squares), the Tat carrier peptide alone (open triangles), and for animals treated with saline (open circles).
Adult male Sprague-Dawley rats weighing between 200-250 g were lightly anaesthetized with urethane (800 mg/kg, i.p.). The dorsal surface of each animal was painted with India ink to ensure heat was applied evenly to the dorsal surface. Baseline measurements of all animals (n=10/test group) were taken for 45 minutes for both C-fibers (0.9° C./sec heating rate) and Aδ-fibers (6.5° C./sec heating rate). The test V5 peptide was derived from the V5 region of γPKC (SEQ ID NO:4) and was conjugated to a Tat-carrier peptide (SEQ ID NO:7). As a positive comparative control, a peptide from the V1 domain of εPKC (SEQ ID NO:6) was also conjugated to a Tat-carrier peptide (SEQ ID NO:7). The peptides were delivered intrathecally via direct lumbar puncture (10 μM peptide in 20 μL saline) 15 minutes prior to topical application of capsaicin to the left hind paw (100 μL of 3% capsaicin). Saline and the Tat-carrier peptide alone (SEQ ID NO:7) were also administered to two separate groups of control animals. A latency measurement was taken post peptide but prior to capsaicin application to control for direct peptide effect. Twenty minutes after the application of capsaicin, the ink was re-applied, and the dorsal surface of the hind paws was subjected to low rate heating for a maximum of 20 seconds. Foot withdrawal latencies were measured at 15 minute intervals.

For assay [4], the system named is formalin-induced spontaneous pain behaviors. Nature of the assay: Formalin-induced nociception in rat pups, peptide given before formalin (Example 1). It counts as in vivo, rat (Sprague-Dawley pups). On the procedure: In the study detailed in Example 1, the peptide identified herein as SEQ ID NO:4 was administered to rat pups on postnatal days 7, 15, and 21. The peptide was administered 15 minutes prior to intraplantar formalin injection. Following formalin injection, spontaneous pain behaviors were recorded every two minutes for one hour. In this study, an εPKC antagonist peptide from the V1 domain was used as a positive, comparative control. As noted above, the εV1-2 peptide, EVASLKPT (SEQ ID NO:6) has been described, for example, in U.S. Pat. No. 5,783,405 and by Dorn et al. (PNAS, […]:12798 (1999)).
Both the εV1-2 peptide and the γPKC peptide V5-3 (SEQ ID NO:4) were conjugated via terminal cysteine residues to a carrier peptide, Tat (SEQ ID NO:7), for administration. One group of animals was treated with the Tat carrier peptide alone as a control. Another group of animals received only saline as a control.
The results are shown in FIGS. 2A-2C, where average pain scores for rat pups treated with γPKC (closed squares), εPCK (open squares), the Tat carrier peptide alone (open triangles), or saline (open circles) are shown as a function of time, in minutes. The average pain score was determined by a time sampling method, where the animal's behavior was recorded every two minutes. A score of “1” was given if the animal was licking, shaking, or elevating the formalin-treated paw. The three pain scores over a six minute period of observation were summed into a single score, to give a maximum possible score of 3 for each animal for each six minute interval. The average pain score was determined from the individual scores of the animals in each treatment group. FIG. 2A corresponds to the average pain scores for 7 day old rat pups, where 1% formalin was administered to the paw 15 minutes post delivery of the peptide or control substance.
Rat pups (male and female, Sprague-Dawley) were randomly divided at selected days after birth (postnatal days 7, 15, and 21) into groups for treatments. Each group received a PKC V5-domain test peptide, a positive, comparative control peptide, a carrier peptide control, or a saline control. The V5-domain test peptide was a γPKC peptide identified herein as SEQ ID NO:4 and as the comparative control peptide was a V1 domain εPKC peptide identified herein as SEQ ID NO:6. Peptides were reversibly conjugated to a Tat-peptide carrier (SEQ ID NO:7) via a cysteine-cysteine bond at their N termini. The peptides were administered via direct lumbar puncture (intrathecal administration) at the indicated dose, typically a dose of 20 μM PKC peptide in 5 μL (7 day old pups) or 10 μL (15 and 21 day old pups) saline.
Fifteen minutes after administration of the peptides or the control substance, 1% formalin (7 day old pups) or 2.5% formalin (15 and 21 day old pups) was delivered intradermally to the paw. Spontaneous pain behaviors were recorded every two minutes for one hour following formalin injection. The time sampling method for behavioral observation was employed, in which the observer rapidly recorded the behavior of the animals every two minutes (Teng et al., Pain, 76:337 (1998). A score of “1” was given if the animal was licking, shaking, or elevating the hindpaw. A six minute period of observation provided a maximum pain score of “3” for each animal.

The next assay concerns the target T1, εPKC (Homo sapiens, UniProt Q02156).
T1 sequence (Q02156 1-737): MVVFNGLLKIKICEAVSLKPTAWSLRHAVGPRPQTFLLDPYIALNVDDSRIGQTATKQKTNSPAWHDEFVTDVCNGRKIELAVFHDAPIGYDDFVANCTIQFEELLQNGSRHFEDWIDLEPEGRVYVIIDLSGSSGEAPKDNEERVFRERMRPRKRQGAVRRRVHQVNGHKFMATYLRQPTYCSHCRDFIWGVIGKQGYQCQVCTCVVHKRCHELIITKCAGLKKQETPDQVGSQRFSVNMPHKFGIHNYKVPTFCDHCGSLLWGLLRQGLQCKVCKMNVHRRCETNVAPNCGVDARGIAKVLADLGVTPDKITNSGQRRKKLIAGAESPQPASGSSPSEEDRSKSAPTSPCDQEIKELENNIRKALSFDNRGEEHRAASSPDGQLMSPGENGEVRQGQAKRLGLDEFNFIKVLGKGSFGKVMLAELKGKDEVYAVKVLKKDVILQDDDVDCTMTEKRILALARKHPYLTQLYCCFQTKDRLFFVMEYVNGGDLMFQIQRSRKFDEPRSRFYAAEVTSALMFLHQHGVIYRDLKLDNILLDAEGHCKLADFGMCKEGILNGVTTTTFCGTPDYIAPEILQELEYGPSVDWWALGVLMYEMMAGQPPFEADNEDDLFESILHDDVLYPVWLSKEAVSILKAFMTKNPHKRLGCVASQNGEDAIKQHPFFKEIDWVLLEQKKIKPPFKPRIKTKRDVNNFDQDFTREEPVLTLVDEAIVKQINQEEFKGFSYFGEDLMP
The note with it: reported in the literature; listed as εV1-2 peptide; cited from earlier work.

In assay [5] the test system is formalin-induced spontaneous pain behaviors. Description: Dose response study in the formalin-induced pain model, rats at postnatal days 7, 15, 21. It counts as in vivo, rat. The text has this:
In postnatal day 21 and older rats, intraplantar formalin produces a stereotypic biphasic behavioral pattern. Phase 1 is characterized by intense shaking, lifting and licking of the offending hindpaw produced by activation of peripheral nociceptors. Activation of descending inhibitory pathways follows, reducing spontaneous pain behaviors (quiescent phase). Quiescence is followed by a second phase, characterized by a revival of pain behaviors, and at least partially mediated by central mechanisms.
A dose response study on rats at postnatal days 7, 15, and 21 using the γPCK V5 peptide identified herein by SEQ ID NO:4. In this study, the average pain scores as a function of time were determined, as described above, using the formalin-induced pain model. The peptide was administered at dosages of 2 μM, 10 μM and 20 μM fifteen minutes […] formalin injection. The results are shown in FIGS. 4A-4C for rats at postnatal day 7 (FIG. 4A), postnatal day 15 (FIG. 4B) and postnatal day 21 (FIG. 4C), where the 2 μM γPKC dose is represented by inverted triangles, the 10 μM dose of γPKC is represented by diamonds, and the 20 μM γPKC dose by circles. The control groups received 10 μM of the Tat carrier peptide and are represented by triangles.

For assay [6], the system named is allodynia and/or hyperalgesia. The note with it: formalin model; cited from earlier work.
Setting [7] is: 7 day old rat pups, 1% formalin to paw 15 min after intrathecal Tat-conjugated peptide, FIG. 2A.
[8] abbreviates: 15 day old rat pups, 2.5% formalin 15 min after intrathecal Tat-conjugated peptide, FIG. 2B.
Where [9] appears, read: 21 day old rat pups, 2.5% formalin 15 min after intrathecal Tat-conjugated peptide, FIG. 2C.
[10] abbreviates: 2, 10, 20 μM, postnatal days 7, 15, 21, FIGS. 4A-4C.

Entries after “also recorded” stand apart in the source; their conditions may differ. Read-outs that look alike come from different tables or passages of the source.

Turning to `CCCCCCCCCCCCC(=O)N1CCCCC1CNC(=O)C(N)CCCCN` (centres unmarked) [NPC15437], the “allodynia and/or hyperalgesia induced by the inflammatory agents” value (from here on “allodynia and/or hyperalgesia induced”) in assay [1] is “reversal of the allodynia and/or hyperalgesia”.

As for calphostin, the “allodynia and/or hyperalgesia induced” value in assay [2] is listed as “reversal of the allodynia and/or hyperalgesia”.

Regarding “EVASLKPT [SEQ ID NO:6, peptide derived from the V1 domain of εPKC, positive comparative control, reference compound]”, in the assay on pain, the pain result was “reported to lessen pain; also recorded: ameliorate pain”. In addition, the “reducing the paw withdrawal latency” value in assay [3] is “about 50%”. Further, the “response to nociception (paw withdrawal latency)” value in assay [3] is “anti-hyperalgesic”. Also, the “average pain score relative to control pups” value in assay [4] (setting [7]) was “provided a greater attenuation of formalin-induced nociception”; in assay [4] (setting [8]), “contribute to nociception relief”; in assay [4] (setting [9]), “contribute to nociception relief”. Further, in the assay with εPKC, the “selective inhibition of εPKC” value was “selective inhibitor of εPKC; also recorded: selectively inhibit PCKε action”.

For the molecule “RLVLAS (peptide derived from the V5 domain of the gamma isozyme of PKC) [SEQ ID NO:4, peptide derived from the V5 domain of the γ isozyme of PKC]”, in assay [5] (setting [10]), the “phase 1 of formalin-induced spontaneous pain behaviors” value is “but not phase 1”. The “phase 2 of formalin-induced spontaneous pain behaviors” value in assay [5] (setting [10]) is recorded as “attenuated phase 2”. Also, the “attenuation of phase 2 behaviors” value in assay [5] (7 day old rats, highest dose (20 μM)) was “mild anti-nociception”; in assay [5] (21 day old rats, all three doses (2, 10, 20 μM)), “more robust anti-nociception”. In addition, the “duration of phase 2 behaviors” value in assay [5] (15 day old rats) and in assay [5] (21 day old rats) was “shortened the duration of phase 2 behaviors” throughout. The “response to nociception (paw withdrawal latency)” value in assay [3] was “induced an analgesic effect, producing an increase of threshold in the initial time point”; in assay [3] (listed as γPKC V5 domain peptide), “effective to modulate the response to nociception”. The “average pain score relative to control pups” value in assay [4] (setting [7]) was “effective to lessen pain”; in assay [4] (setting [8]), “effective to alleviate pain”; in assay [4] (setting [9]), “provided a reduction in pain”. Further, in assay [4] (summary of FIGS. 2A-2C), the “duration of formalin-induced pain” value is “effectively shortened the duration”. Moreover, the “formalin-induced spontaneous pain behaviors” value in assay [4] (summary of FIGS. 2A-2C, postnatal days 7, 15, 21) is given as “attenuated formalin-induced spontaneous pain behaviors”.

For `COc1ccc2c(c[n+](C)c3c4cc5c(cc4ccc23)OCO5)c1OC` [chelerythrine], in assay [6], the “allodynia and/or hyperalgesia induced” value is given as “reversal of the allodynia and/or hyperalgesia”.

These data come from patent publication US20090143293A1, “Peptide inhibitors of protein kinase C gamma for pain management” (priority 2002, published 2009).
